Tests used:
[1] = xn = mol fraction of the nth substance listed; conditions: 101.3 kPa, Liquid
[2] = excess molar enthalpy (molar enthalpy of mixing); xn = mol fraction of the nth substance listed; conditions: 101.3 kPa, Liquid

C=C1CCC2CC1C2(C)C (stereo not drawn) [β-pinene] + CCCO
Conditions	excess molar enthalpy [kcal/mol]	mass density [kg/m3]	speed of sound [m/s]
[1], 283.15 K, x1 = 0.0505	–	818.13	1265.6
[1], 283.15 K, x1 = 0.1024	–	824.2	1272.7
[1], 283.15 K, x1 = 0.2046	–	834.58	1285.3
[1], 283.15 K, x1 = 0.3046	–	843.01	1296
[1], 283.15 K, x1 = 0.405	–	850.35	1305.5
[1], 283.15 K, x1 = 0.5035	–	856.46	1313.7
[1], 283.15 K, x1 = 0.599	–	861.68	1321.2
[1], 283.15 K, x1 = 0.7026	–	866.65	1328.8
[1], 283.15 K, x1 = 0.8026	–	871.06	1336.3
[1], 283.15 K, x1 = 0.8834	–	874.33	1342.6
[1], 283.15 K, x1 = 0.9488	–	–	1348.5
[1], 283.15 K, x1 = 0.9489	–	876.85	–
[1], 283.15 K, x1 = 0.9812	–	878.27	1352.9
[1], 298.15 K, x1 = 0.053	–	806.47	1212.9
[1], 298.15 K, x1 = 0.1036	–	812.35	1219
[1], 298.15 K, x1 = 0.2039	–	822.4	1229.7
[1], 298.15 K, x1 = 0.3038	–	830.81	1239.1
[1], 298.15 K, x1 = 0.3966	–	837.49	1246.9
[1], 298.15 K, x1 = 0.5122	–	844.67	1255.7
[1], 298.15 K, x1 = 0.6005	–	849.44	1261.8
[1], 298.15 K, x1 = 0.699	–	854.2	1268.6
[1], 298.15 K, x1 = 0.793	–	–	1275.4
[1], 298.15 K, x1 = 0.7931	–	858.43	–
[1], 298.15 K, x1 = 0.8937	–	862.59	1283.3
[1], 298.15 K, x1 = 0.9426	–	864.54	1287.9
[1], 298.15 K, x1 = 0.9834	–	866.31	1293.6
[1], 313.15 K, x1 = 0.0514	–	794.24	1160.5
[1], 313.15 K, x1 = 0.1021	–	800.04	1165.7
[1], 313.15 K, x1 = 0.2032	–	810.14	1175
[1], 313.15 K, x1 = 0.307	–	818.69	1183.4
[1], 313.15 K, x1 = 0.405	–	825.65	1190.4
[1], 313.15 K, x1 = 0.5007	–	831.57	1196.5
[1], 313.15 K, x1 = 0.6004	–	837.06	1202
[1], 313.15 K, x1 = 0.7051	–	842.2	1206.4
[1], 313.15 K, x1 = 0.7928	–	846.14	1213.3
[1], 313.15 K, x1 = 0.8931	–	850.44	1222.1
[1], 313.15 K, x1 = 0.9407	–	852.42	1225.6
[1], 313.15 K, x1 = 0.9786	–	854.11	1228.9
[2], 283.15 K, x1 = 0.067	0.0146	–	–
[2], 283.15 K, x1 = 0.135	0.0304	–	–
[2], 283.15 K, x1 = 0.263	0.0564	–	–
[2], 283.15 K, x1 = 0.38	0.0755	–	–
[2], 283.15 K, x1 = 0.488	0.0891	–	–
[2], 283.15 K, x1 = 0.585	0.0963	–	–
[2], 283.15 K, x1 = 0.677	0.0994	–	–
[2], 283.15 K, x1 = 0.764	0.097	–	–
[2], 283.15 K, x1 = 0.855	0.086	–	–
[2], 283.15 K, x1 = 0.926	0.0674	–	–
[2], 283.15 K, x1 = 0.97	0.0473	–	–
[2], 298.15 K, x1 = 0.067	0.0213	–	–
[2], 298.15 K, x1 = 0.135	0.0423	–	–
[2], 298.15 K, x1 = 0.263	0.0803	–	–
[2], 298.15 K, x1 = 0.38	0.109	–	–
[2], 298.15 K, x1 = 0.488	0.129	–	–
[2], 298.15 K, x1 = 0.585	0.14	–	–
[2], 298.15 K, x1 = 0.677	0.147	–	–
[2], 298.15 K, x1 = 0.764	0.14	–	–
[2], 298.15 K, x1 = 0.855	0.127	–	–
[2], 298.15 K, x1 = 0.926	0.0978	–	–
[2], 298.15 K, x1 = 0.97	0.0626	–	–
[2], 313.15 K, x1 = 0.067	0.0277	–	–
[2], 313.15 K, x1 = 0.135	0.0581	–	–
[2], 313.15 K, x1 = 0.263	0.11	–	–
[2], 313.15 K, x1 = 0.38	0.15	–	–
[2], 313.15 K, x1 = 0.488	0.177	–	–
[2], 313.15 K, x1 = 0.585	0.192	–	–
[2], 313.15 K, x1 = 0.677	0.196	–	–
[2], 313.15 K, x1 = 0.764	0.188	–	–
[2], 313.15 K, x1 = 0.855	0.163	–	–
[2], 313.15 K, x1 = 0.926	0.124	–	–
[2], 313.15 K, x1 = 0.97	0.0791	–	–

Source: the NIST ThermoML archive (doi:10.1021/je050006+)
